Test results reported in PubChem BioAssay (NCI).
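Results reflect a 48-hour exposure of cells in 96-well plates to compound at five concentrations. TGI marks complete inhibition of growth.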

Tests used:
Assay in all cases: NCI-60 cell line screen, 48 h
NCI-H226 lung = system: NCI-H226 lung
U251 CNS = system: U251 CNS
SF-295 CNS = system: SF-295 CNS
M14 melanoma = system: M14 melanoma
SK-MEL-28 melanoma = system: SK-MEL-28 melanoma
HCT-15 colon = system: HCT-15 colon
A549 NSCLC = system: A549 NSCLC
PC-3 prostate = system: PC-3 prostate
UACC-62 melanoma = system: UACC-62 melanoma
OVCAR-3 ovarian = system: OVCAR-3 ovarian
DU-145 prostate = system: DU-145 prostate
MDA-MB-231 breast = system: MDA-MB-231 breast
UACC-257 melanoma = system: UACC-257 melanoma
MOLT-4 leukemia = system: MOLT-4 leukemia
NCI-H460 lung = system: NCI-H460 lung
KM12 colon = system: KM12 colon
SK-OV-3 ovarian = system: SK-OV-3 ovarian
SR leukemia = system: SR leukemia
TK-10 renal = system: TK-10 renal
SN12C renal = system: SN12C renal
HT29 colon = system: HT29 colon
OVCAR-5 ovarian = system: OVCAR-5 ovarian
ACHN renal = system: ACHN renal
NCI-H23 lung = system: NCI-H23 lung
SK-MEL-5 melanoma = system: SK-MEL-5 melanoma
MDA-MB-435 = system: MDA-MB-435
EKVX NSCLC = system: EKVX NSCLC
HOP-62 NSCLC = system: HOP-62 NSCLC
BT-549 breast = system: BT-549 breast
LOX IMVI melanoma = system: LOX IMVI melanoma
SNB-19 CNS = system: SNB-19 CNS
SF-539 CNS = system: SF-539 CNS
RPMI-8226 leukemia = system: RPMI-8226 leukemia
K-562 leukemia = system: K-562 leukemia
SNB-75 CNS = system: SNB-75 CNS
COLO 205 colon = system: COLO 205 colon
MCF7 breast = system: MCF7 breast
OVCAR-4 ovarian = system: OVCAR-4 ovarian
SW-620 colon = system: SW-620 colon
MDA-N = system: MDA-N
RXF 393 renal = system: RXF 393 renal
A498 renal = system: A498 renal
SK-MEL-2 melanoma = system: SK-MEL-2 melanoma
CAKI-1 renal = system: CAKI-1 renal
HCT-116 colon = system: HCT-116 colon
786-0 renal = system: 786-0 renal
T-47D breast = system: T-47D breast
CCRF-CEM leukemia = system: CCRF-CEM leukemia
NCI/ADR-RES ovarian = system: NCI/ADR-RES ovarian
OVCAR-8 ovarian = system: OVCAR-8 ovarian
SF-268 CNS = system: SF-268 CNS
IGROV1 ovarian = system: IGROV1 ovarian
HOP-92 NSCLC = system: HOP-92 NSCLC
UO-31 renal = system: UO-31 renal
HL-60(TB) leukemia = system: HL-60(TB) leukemia
NCI-H522 lung = system: NCI-H522 lung
MALME-3M melanoma = system: MALME-3M melanoma
HS 578T breast = system: HS 578T breast
HCC-2998 colon = system: HCC-2998 colon

Measured: TGI

Cc1ccc2c(c1)NC(c1ccc(C(=O)O)cc1)c1cccn1-2 (stereo unspecified)
71.4 µM: DU-145 prostate
49.2 µM: T-47D breast
42.6 µM: ACHN renal
51.8 µM: SK-OV-3 ovarian
94.6 µM: SNB-19 CNS
39.6 µM: SNB-75 CNS
64.9 µM: A498 renal
72.7 µM: CAKI-1 renal
43.1 µM: 786-0 renal
64 µM: OVCAR-4 ovarian
58.6 µM: HOP-62 NSCLC
50.2 µM: RXF 393 renal
not listed: NCI/ADR-RES ovarian | OVCAR-8 ovarian | SF-268 CNS | IGROV1 ovarian | HOP-92 NSCLC | UO-31 renal | HL-60(TB) leukemia | NCI-H522 lung | MALME-3M melanoma | HS 578T breast | HCC-2998 colon
> 100 µM: all other assays above

Cc1c2c(c(C)n1-c1ccccc1)C(=O)N(CCSC(=N)N)C2=O
73.6 µM: T-47D breast
not listed: SR leukemia | LOX IMVI melanoma
> 100 µM: all other assays above

CC(C)C1CC=NN1C(=O)OC(C)(C)C (stereo unspecified)
not listed: U251 CNS | SK-MEL-28 melanoma | PC-3 prostate | MDA-MB-231 breast | BT-549 breast | SNB-19 CNS | OVCAR-4 ovarian | SK-MEL-2 melanoma | MALME-3M melanoma
> 100 µM: all other assays above

Cc1nc2c(o1)C(=O)c1ccccc1C2=NC1CCCCC1N (stereo unspecified)
3.24 µM: OVCAR-5 ovarian
0.318 µM: UACC-62 melanoma
3.02 µM: HCC-2998 colon
2 µM: ACHN renal
1.38 µM: SW-620 colon
3 µM: UO-31 renal
5.33 µM: HT29 colon
1.86 µM: T-47D breast
3.46 µM: PC-3 prostate
2.91 µM: A549 NSCLC
1.97 µM: HOP-92 NSCLC
1.16 µM: SN12C renal
1.21 µM: OVCAR-8 ovarian
0.729 µM: HCT-116 colon
3.43 µM: 786-0 renal
0.275 µM: MALME-3M melanoma
3.15 µM: NCI-H460 lung
1.66 µM: OVCAR-3 ovarian
2.92 µM: EKVX NSCLC
2.3 µM: HOP-62 NSCLC
1.53 µM: M14 melanoma
2.53 µM: SK-MEL-2 melanoma
3.84 µM: TK-10 renal
0.564 µM: SNB-75 CNS
0.343 µM: MDA-N
3.75 µM: NCI-H226 lung
2.8 µM: DU-145 prostate
0.313 µM: SK-MEL-28 melanoma
0.276 µM: NCI-H23 lung
0.66 µM: LOX IMVI melanoma
1.2 µM: NCI/ADR-RES ovarian
2.1 µM: SNB-19 CNS
> 100 µM: K-562 leukemia
0.9 µM: MCF7 breast
3.12 µM: A498 renal | CAKI-1 renal
1.46 µM: MOLT-4 leukemia
2.75 µM: MDA-MB-231 breast
3.08 µM: COLO 205 colon
0.252 µM: SK-MEL-5 melanoma
1.29 µM: BT-549 breast
2.76 µM: HS 578T breast
4.2 µM: RPMI-8226 leukemia
1.28 µM: CCRF-CEM leukemia
0.321 µM: UACC-257 melanoma
2.89 µM: IGROV1 ovarian
3.82 µM: SF-268 CNS
1.01 µM: OVCAR-4 ovarian
1.84 µM: HCT-15 colon
1.32 µM: U251 CNS
0.302 µM: MDA-MB-435
2.33 µM: NCI-H522 lung
1.08 µM: SF-539 CNS
0.749 µM: HL-60(TB) leukemia
3.18 µM: KM12 colon

CCCCCCCCCCCCCCCC(=O)ON1C(=S)NC(C)(c2ccccc2)C1=S (stereo unspecified)
80.1 µM: M14 melanoma
not listed: U251 CNS | SK-MEL-28 melanoma | SR leukemia | MDA-MB-435 | SW-620 colon | NCI-H522 lung
> 100 µM: all other assays above

O=C1CC(=O)N(C2CCCCC2)C(=O)N1c1ccccc1S(=O)(=O)Oc1ccccc1
37.8 µM: MOLT-4 leukemia
33.3 µM: 786-0 renal
7.69 µM: LOX IMVI melanoma
33 µM: UO-31 renal
36.5 µM: ACHN renal
30.2 µM: IGROV1 ovarian
97.1 µM: RPMI-8226 leukemia
85.9 µM: K-562 leukemia
54.5 µM: CCRF-CEM leukemia
not listed: NCI-H226 lung | NCI-H23 lung | NCI-H522 lung | MALME-3M melanoma | HS 578T breast
> 100 µM: all other assays above

CC(=O)Oc1ccccc1[C@H]1CC(=O)C[C@H](c2ccccc2OC(C)=O)C12C(=O)c1ccccc1C2=O
47.3 µM: MDA-N
70.9 µM: M14 melanoma
85.4 µM: HCC-2998 colon
54.3 µM: COLO 205 colon
51.2 µM: SK-MEL-28 melanoma
48.7 µM: SK-MEL-5 melanoma
89.2 µM: OVCAR-3 ovarian
74 µM: NCI-H226 lung
66.2 µM: SK-MEL-2 melanoma
88.9 µM: HCT-116 colon
30.9 µM: UACC-62 melanoma
31.6 µM: MDA-MB-435
94.6 µM: MDA-MB-231 breast
84 µM: K-562 leukemia
92.8 µM: NCI-H522 lung
90.5 µM: NCI-H23 lung
60.3 µM: NCI-H460 lung
93.4 µM: RXF 393 renal
84.5 µM: BT-549 breast
not listed: A549 NSCLC | UACC-257 melanoma | TK-10 renal | ACHN renal | EKVX NSCLC | LOX IMVI melanoma | SF-539 CNS | MCF7 breast | SW-620 colon | 786-0 renal | SF-268 CNS
> 100 µM: all other assays above

Cc1cc(S(N)(=O)=O)c(SCc2nc(N)nc(N(C)C)n2)cc1Cl
not listed: UACC-62 melanoma | MDA-MB-231 breast | MDA-MB-435
> 10 µM: all other assays above
